Results on 31 molecules are retold here after the Deep4Chem optical property database.

This series is described as follows: solvent given as SMILES.

Where “and” joins values, the source holds several entries; their conditions need not be identical. Equal entries are not always repeated.

With `c1ccc2c(c1)c1ccccc1n2-c1ccc(-c2cc3ccc(-c4ccc5cc(-c6ccc(-n7c8ccccc8c8ccccc87)cc6)oc5c4)cc3o2)cc1`, the absorption maximum was found to be 365 nm (in Cc1ccccc1) and 376 nm (in c1ccc2c(c1)c1ccccc1n2-c1ccc(-c2ccc(-n3c4ccccc4c4ccccc43)cc2)cc1).

`COc1ccc2n1[B-](F)(F)[N+]1=C(c3ccccc3)C=CC1=C2c1ccc(C)cc1`: the absorption maximum runs as follows: (in C1CCCCC1) 532 nm; (in C1CCOC1) 528 nm; (in C1COCCO1) 529 nm; (in CCOC(C)=O) 526 nm; (in CO) 523 nm; (in Cc1ccccc1) 534 nm. In addition, for the setting “in ClC(Cl)Cl”, the absorption maximum was determined as 530 nm.

As to `O=Cc1cc(O)ccc1O`, the absorption maximum is given as 366 nm (in C1CCOC1); 363 nm (in C1COCCO1); 362 nm (in CC#N); 364 nm (in CC(C)=O); 367 nm (in CCCO); 367 nm (in CCO). In addition, the absorption maximum by setting is: (in CN(C)C=O) 365 nm; (in CN(C)P(=O)(N(C)C)N(C)C) 369 nm; (in CNC=O) 358 nm; (in CO) 364 nm; (in CS(C)=O) 366 nm; (in ClC(Cl)Cl) 362 nm. Where the note is “in NC=O”, this molecule came in with an absorption maximum of 363 nm.

`CC(C)(C)NC1=CC2=c3cc(NC(C)(C)C)c4nc(C(F)(F)C(F)(F)C(F)(F)F)nc5c(NC(C)(C)C)cc(c3c54)C3=CC(NC(C)(C)C)=C4N=C(C(F)(F)C(F)(F)C(F)(F)F)N=C1C4C32` (configuration not stated) had an absorption maximum (in C1CCOC1) of 646 nm.

Turning to `COc1ccc(C2=CC(c3ccc(OC)cc3)=[O+][B-](C(C)=O)(C(C)=O)O2)cc1`, the absorption maximum runs as follows: (in CC#N) 410 nm; (in ClC(Cl)(Cl)Cl) 405 nm.

`COc1ccc(C(=O)NC(C)(C)C)c2c1ccc1c3ccccc3c3ccccc3c12` came in with an absorption maximum (in ClCCl) of 334 nm.

`COc1cc(/C=C/C(=O)O)ccc1O` gave an absorption maximum (in O) of 287 nm.

Where the note is “in Cc1ccccc1”, `O=C1c2ccc(-c3ccc(N(c4ccccc4)c4ccccc4)cc3)cc2C(=O)c2ccc(-c3ccc(N(c4ccccc4)c4ccccc4)cc3)cc21` yielded an absorption maximum of 454 nm.

`CN(C)c1cc(C#N)c(N(C)C)c(C#N)c1`: the absorption maximum was determined as 387.45 nm (in C1CCCCC1); 390.47 nm (in C1CCOC1); 391.08 nm (in C1COCCO1); 394.48 nm (in CC1COC(=O)O1); 390.93 nm (in CC#N); 389.86 nm (in CC(C)=O). For the same molecule, the absorption maximum reads like this: (in CC(C)OC(C)C) 386.7 nm; (in CCC#N) 391.08 nm; (in CCC(C)C) 385.21 nm; (in CCCCCC) 386.7 nm; (in CCCCCCCCO) 393.39 nm; (in CCCCCOCCCCC) 388.5 nm. Further, the absorption maximum by setting is: (in CCCCOC(C)=O) 389.86 nm; (in CCCCOCCCC) 387.6 nm; (in CCCOCCC) 389.86 nm; (in CCO) 391.7 nm; (in CCOC(C)=O) 389.71 nm; (in CCOCC) 390.62 nm. For the same molecule, the absorption maximum by setting is: (in CN(C)C=O) 393.55 nm; (in CO) 392.31 nm; (in CS(C)=O) 396.83 nm; (in Cc1ccccc1) 395.26 nm; (in ClCCCl) 394.48 nm; (in ClCCl) 397.3 nm. Further, the absorption maximum stood at 399.36 nm (in N#Cc1ccccc1), 386.85 nm (in O), 403.39 nm (in OCC(O)CO) and 395.73 nm (in c1ccccc1).

On to `COC(=O)C1=C(C(=O)OC)C2(c3ccccc3-c3ccccc32)[C@@H](c2ccc(C)cc2)C=C2c3cc(OC)c(OC)cc3CCN21`, for which, under “in ClCCl”, the absorption maximum worked out at 311 nm.

Under “in ClCCl”, `CC(C)(C)c1cc(-c2cc3c(cc(-c4cc(C(C)(C)C)cc(C(C)(C)C)c4)n3-c3ccc(C(=C(c4ccccc4)c4ccccc4)c4ccccc4)cc3)n2-c2ccc(C(=C(c3ccccc3)c3ccccc3)c3ccccc3)cc2)cc(C(C)(C)C)c1` yielded an absorption maximum of 337 nm.

As for `Cc1ccc(-c2ccc(/C=C/c3ccc([N+](=O)[O-])cc3)cn2)nc1`, the absorption maximum (in CC#N) came out at 349 nm.

Where the note is “in c1cc(-c2cccc(-n3c4ccccc4c4ccccc43)c2)cc(-n2c3ccccc3c3ccccc32)c1”, `Cc1cc(-c2nc(-c3ccccc3)nc(-c3ccccc3)n2)ccc1-c1ccc2c(c1)C1(c3ccccc3-c3ccccc31)c1ccccc1N2c1ccccc1` showed an absorption maximum of 371.92 nm.

For `O=C1O/C(=C\c2ccccc2)c2ccccc21`, for the setting “in CC#N”, the absorption maximum is on record as 335 nm.

On to `CC(=O)c1c(N[C@@H](Cc2ccccc2)C(=O)O)c2ccc(N(C)C)cc2oc1=O`, for which the absorption maximum (in ClCCl) came out at 374 nm.

Regarding `Oc1ccc(-c2cccs2)cc1-c1nc2ccccc2s1`, the absorption maximum runs as follows: (in CCO) 360 nm; (in O) 361 nm.

As to `CN(C)c1ccc(/C=C/c2cc[n+](Cc3cc(C[n+]4ccc(/C=C/c5ccc(N(C)C)cc5)cc4)cc(C[n+]4ccc(/C=C/c5ccc(N(C)C)cc5)cc4)c3)cc2)cc1`, the absorption maximum runs as follows: (in C1COCCO1) 480 nm; (in CC(C)O) 490 nm; (in CCCCCCCCO) 489 nm; (in CCCCO) 491 nm; (in CCCO) 495 nm; (in CCO) 498 nm. Also, the absorption maximum (in CO) is given as 498 nm, the absorption maximum (in CS(C)=O) worked out at 491 nm, the absorption maximum (in ClC(Cl)Cl) amounted to 500 nm and the absorption maximum (in ClCCl) was found to be 500 nm.

Consider `Nc1ccc2c(C(F)(F)F)cc(=O)oc2c1`, for which the absorption maximum reads like this: (in C1CCC2CCCCC2C1) 349 nm; (in C1CCCCC1) 348 nm; (in C1COCCO1) 364 nm; (in CC1CCCCC1) 348 nm; (in CC#N) 365 nm and 367 nm; (in CC(C)=O) 371 nm. The absorption maximum came to 384 nm (in CC(C)O); 347 nm (in CCC(C)CC); 347 nm (in CCCC(C)C); 347 nm (in CCCCCC); 383 nm (in CCCCCCCCO); 384 nm (in CCCCCCO). Also, the absorption maximum is given as 383 nm (in CCCCO); 383 nm (in CCO); 368 nm (in CCOC(C)=O); 378 nm (in CN(C)C=O); 378 nm (in CO); 386 nm (in CS(C)=O).

On to `COc1nc(Nc2ccc3c4cccc5cccc(c6cccc2c63)c54)nc(OC)n1`, for which the absorption maximum reads like this: (in C1COCCO1) 443 nm; (in CC#N) 444 nm; (in CCCCOCCCC) 442 nm; (in CCOC(C)=O) 441 nm.

Take `COc1ccc(C#Cc2ccc(C#N)cc2)cc1OC`: the absorption maximum runs as follows: (in C1COCCO1) 326 nm; (in CC#N) 325 nm; (in CCCCCC) 343 nm; (in CCCCCCC) 344 nm; (in CCCO) 329 nm; (in CCOC(C)=O) 326 nm. The absorption maximum worked out at 334 nm (in CS(C)=O), 329 nm (in ClC(Cl)Cl) and 331 nm (in ClCCl).

Turning to `CCCc1ccc(C#Cc2cc(C#Cc3ccc(N(C)C)cc3)c3ccc4c(C#Cc5ccc(N(C)C)cc5)cc(C#Cc5ccc(CCC)cc5)c5ccc2c3c54)cc1`, the absorption maximum (in ClCCl) amounted to 488 nm.

Under “in CS(C)=O”, `COc1ccc(-c2c3nc(cc4ccc([nH]4)c(-c4ccc(OC)c(OCCCC(=O)O)c4)c4nc(cc5ccc2[nH]5)CC4)CC3)cc1OCCCC(=O)O` returned an absorption maximum of 736 nm.

Where the note is “in Cc1ccccc1”, `N#Cc1nc(-c2ccc(N3c4ccccc4Oc4ccccc43)cc2)c(-c2ccc(N3c4ccccc4Oc4ccccc43)cc2)nc1C#N` had an absorption maximum of 473 nm.

As for `CC[n+]1nc2cc3c4c(c2c2cc(C)ccc21)CCCN4CCC3`, the absorption maximum (in O) worked out at 500 nm.

On to `COC(=O)CCC(NC(=O)CCNc1cccc2ccccc12)C(=O)OC` (configuration not stated), for which the absorption maximum (in CCO) was 330 nm.

For the setting “in ClCCl”, `C1=Cc2ccc(N(c3ccccc3)c3cccc4ccccc34)cc2C2(c3cc(N(c4ccccc4)c4cccc5ccccc45)ccc31)c1ccccc1-c1ccccc12` displayed an absorption maximum of 403 nm.

In turn, `N#Cc1nc(N(Cc2ccccc2)Cc2ccccc2)c(C#N)nc1N(Cc1ccccc1)Cc1ccccc1` returned an absorption maximum (in ClC(Cl)Cl) of 493 nm.

As for `CN(C)CCCN1c2ccccc2CCc2ccccc21`, the absorption maximum by setting is: (in CC#N) 276 nm; (in CO) 274 nm; (in O) 275 nm.

Molecule `c1ccc2c(c1)c1ccccc1n2-c1cc(-c2nc3ccccn3n2)cc(-n2c3ccccc3c3ccccc32)c1` registered an absorption maximum (in Cc1ccccc1) of 338 nm.

With `CC(C)(C)c1ccc2c(c1)c1cc(C(C)(C)C)ccc1n2-c1ccccc1-c1nc(-c2ccccc2-n2c3ccc(C(C)(C)C)cc3c3cc(C(C)(C)C)ccc32)nc(-c2ccccc2P(=O)(c2ccccc2)c2ccccc2)n1`, the absorption maximum is, setting by setting: (in C1CCOC1) 343.17 nm; (in CC#N) 340.7 nm; (in CC(C)=O) 343.17 nm; (in CN(C)C=O) 343.17 nm; (in Cc1ccccc1) 340.7 nm; (in ClC(Cl)Cl) 343.17 nm. Further, the absorption maximum (in ClCCl) was found to be 343.17 nm.

With `CCC1=C(C)C2=Cc3c4ccccc4c4n3[B-](c3ccncc3)(Oc3ccccc3-4)[N+]2=C1C=Cc1ccc(OC)cc1` (configuration not stated), the absorption maximum by setting is: (in CC#N) 690 nm; (in CCCCCC) 698 nm; (in Cc1ccccc1) 703 nm; (in ClCCl) 699 nm.
